Measurements published in patent US12227517B2, “Pyridazinyl-thiazolecarboxamide compound” (Astellas Pharma Inc., priority 2019, dated 2025).
Counter-ions that a name gives are not always drawn.

Experiments:
human recombinant DGK ξ = human recombinant DGK ξ (Homo sapiens (Human), UniProt Q13574); experiment: Evaluation of DGK ξ inhibitory effect (ADP-Glo Kinase Assay); type: biochemical
Method: Test Example 1: Evaluation of DGK ξ Inhibitory Effect
The inhibitory effect of a test compound on human recombinant DGK ξ (Carna Biosciences, Inc., 12-410-20N) was examined by the following method in which detection is performed with ADP-Glo™ Kinase Assay (Promega Corporation).
To a 384-well plate (Greiner Bio-One Co., Ltd.), 3 μL of a […] dissolved in an assay buffer (40 mM Tris-HCl pH 7.5, 10 mM MgCl2, 1 mM dithiothreitol (DTT) and 0.1 mg/mL bovine serum albumin (BSA)) (90 ng/mL) was added, and 3 μL of the test compound diluted with the same assay buffer was added so that an intended final concentration was obtained. The mixture was left standing at room temperature for 15 minutes, 3 μL of a substrate (150 μM 1-oleoyl-2-acetyl-sn-glycerol (Sigma-Aldrich Co. LLC.), 480 μM phosphatidylserine (Avanti Polar Lipids, Inc.) and 150 μM UltraPure-ATP (attached to ADP-Glo)) was then added, and the mixture was left standing at room temperature for 30 minutes to react. Thereafter, 3 μL of an ADP-Glo Reagent was added, and the mixture was left standing at room temperature for 40 minutes to stop the enzyme reaction. Further, 6 μL of a Kinase-Detection Reagent was added, the mixture was left standing at room temperature for 30 minutes, and the luminescence was then measured using ARVO X3 (PerkinElmer, Inc.). The half maximal inhibitory concentration (IC50) was calculated by Sigmoid-Emax model non-linear regression analysis, where the signal value in solvent treatment was set to 0% inhibition and the signal value without addition of the DGK ξ enzyme was set to 100% inhibition. […] In the table, Ex represents the number of each Example described below. Also, in the table, compound C (cpd. C) represents the test compound of the Example 199 described in the international publication WO 2008/054702.

Jurkat E6.1 cells = experiment: Evaluation of IL-2 production in human T cell leukemia cell line Jurkat E6.1 (TCR stimulation anti-CD3/anti-CD28); type: cell-based; details: concentration at which IL-2 increased to 10 times the solvent control, Jurkat E6.1, anti-CD3/anti-CD28, 24 hours, read-out: EC10fold
Method: Test Example 2: Evaluation of IL-2 Production in Human T Cell Leukemia Cell Line Jurkat E6.1
The effect of the test compound on the IL-2 production by T cell receptor (TCR) stimulation (anti-CD3/anti-CD28) in Jurkat E6.1 cells (ECACC, 88042803) was evaluated.
A 5 μg/mL anti-CD3 antibody (eBioscience, Inc., OKT3 clone) diluted with phosphate buffer saline (PBS) was added to a 96-well plate (Iwaki & Co., Ltd.) at 50 μL/well, and left standing at 4° C. for 12 hours or more to provide an anti-CD3 antibody-coated plate in advance. When the plate was used for experiments, the plate was washed with 200 μL of PBS once, an anti-CD28 antibody (eBioscience, Inc., 28.2 clone) diluted to a concentration of […] with a culture medium (RPMI1640 (Sigma-Aldrich Co. LLC.) containing 10% fetal bovine serum (Hyclone Laboratories, Inc.)) was then added at 10 μL/well, and the plate was used for assay as a culture plate for TCR stimulation.
Subsequently, the test compound was mixed with Jurkat E6.1 cells in such a manner that an intended final concentration was obtained, and the mixture was plated at 90 μL/well so that the number of cells per well was 1×10^5 (that is, finally the culture was performed at 1×10^5 cells/100 μL/well). For culture cell conditions, the culture was performed at 37° C. in the presence of 5% CO2 using RPMI1640 medium containing 10% fatal bovine serum.
After 24 hours, the culture supernatant was collected, and IL-2 was quantitatively determined using AlphaLISA human IL2 Immunoassay Research Kit (PerkinElmer, Inc.). The IL-2 measurement was performed under Alpha Screen standard setting conditions (the fluorescence intensity at 570 nm was measured with an excitation wavelength of 680 nm) using EnVision 2104-0010 and EnVision 2104-0020 (PerkinElmer, Inc.). The IL-2 quantitative value of the solvent treatment control was set to 1, and the test compound concentration at which the IL-2 quantitative value of the test compound treatment sample increased to 10 times the IL-2 quantitative value of the control (EC10fold) was calculated by inverse estimation with the aid of Sigmoid-Emax model non-linear regression analysis. […] In the table, Ex represents the number of each Example described below.

MC38 cells = experiment: Antitumor effect in syngeneic mouse model bearing mouse colon adenocarcinoma cell line MC38; type: in vivo; details: relative tumor growth inhibition, MC38, C57BL/6J mice, oral, twice a day day 1-10 and once on day 11
Method: Test Example 3: Evaluation of Antitumor Effect in Syngeneic Mouse Model Bearing Mouse Colon Adenocarcinoma Cell Line MC38
A cell suspension liquid prepared by suspending MC38 cells (supplied from National Cancer Institute) in PBS at 4.0×10^6 cells/mL was subcutaneously inoculated into 6-week-old female mice (C57BL/6J from Charles River Laboratories Japan, Inc.) in a volume of 50 μL. 4 days after the inoculation, the mice were grouped in such a manner that there was substantially no difference in tumor volume between groups, and administration of the test compound was started. The test was conducted with a solvent group and a test compound administration group each having 10 mice. 0.5% methylcellulose (Shin-Etsu Chemical Co., Ltd.) was orally administered to the solvent group, and 0.5% methylcellulose mixed with the test compound was orally administered to the test compound administration group. The administration was performed twice a day from day 1 to day 10 and once a day on day 11, and the tumor diameter and the body weight were measured twice a week. The following expression was used for calculation of the tumor volume. [tumor volume (mm^3)]=[tumor major diameter (mm)]×[tumor minor diameter (mm)]^2×0.5
The relative tumor growth inhibition (%) of the test compound was calculated, where the tumor volume of the test compound administration group immediately before the start of administration was set to 100% inhibition, and the tumor volume of the solvent group on the last day of administration was set to 0% inhibition. […] In the table, Ex represents the number of each Example described below.

B16-F1 cells = experiment: Antitumor effect in syngeneic mouse model bearing mouse melanoma cell line B16-F1; type: in vivo; details: relative tumor growth inhibition, B16-F1, oral
Method: Test Example 4: Evaluation of Antitumor Effect in Syngeneic Mouse Model Bearing Mouse Melanoma Cell Line B16-F1
A cell suspension liquid prepared by suspending B16-F1 cells (ATCC, CRL-6323) in PBS at 2.0×10^6 cells/mL or 1.0×10^7 cells/mL was subcutaneously inoculated into 5-week-old female mice (C57BL/6J from Charles River Laboratories Japan, Inc.) in a volume of 50 μL. 5 days after the inoculation, the mice were grouped in such a manner that there was substantially no difference in tumor volume between groups, and administration of the test compound was started. The test was conducted with a solvent group and a test compound administration group each having 10 mice. 0.5% methylcellulose was orally administered to the solvent group, and 0.5% methylcellulose mixed with the test compound was orally administered to the test compound administration group. The administration was performed according to the regimen described in Table 4, and the tumor diameter and the body weight were measured twice a week. The following expression was used for calculation of the tumor volume. [tumor volume (mm^3)]=[tumor major diameter (mm)]×[tumor minor diameter (mm)]^2×0.5
The relative tumor growth inhibition (%) of the test compound was calculated, where the tumor volume of the test compound administration group immediately before the start of administration was set to 100% inhibition, and the tumor volume of the solvent group on the day after the last administration was set to 0% inhibition. […] In the table, Ex represents the number of each Example described below.

[1] = 0.1 mg/kg, 1/day, 8 days, 1 × 10^5 cells inoculated

Chain of human recombinant DGK ξ (Q13574 whole entry): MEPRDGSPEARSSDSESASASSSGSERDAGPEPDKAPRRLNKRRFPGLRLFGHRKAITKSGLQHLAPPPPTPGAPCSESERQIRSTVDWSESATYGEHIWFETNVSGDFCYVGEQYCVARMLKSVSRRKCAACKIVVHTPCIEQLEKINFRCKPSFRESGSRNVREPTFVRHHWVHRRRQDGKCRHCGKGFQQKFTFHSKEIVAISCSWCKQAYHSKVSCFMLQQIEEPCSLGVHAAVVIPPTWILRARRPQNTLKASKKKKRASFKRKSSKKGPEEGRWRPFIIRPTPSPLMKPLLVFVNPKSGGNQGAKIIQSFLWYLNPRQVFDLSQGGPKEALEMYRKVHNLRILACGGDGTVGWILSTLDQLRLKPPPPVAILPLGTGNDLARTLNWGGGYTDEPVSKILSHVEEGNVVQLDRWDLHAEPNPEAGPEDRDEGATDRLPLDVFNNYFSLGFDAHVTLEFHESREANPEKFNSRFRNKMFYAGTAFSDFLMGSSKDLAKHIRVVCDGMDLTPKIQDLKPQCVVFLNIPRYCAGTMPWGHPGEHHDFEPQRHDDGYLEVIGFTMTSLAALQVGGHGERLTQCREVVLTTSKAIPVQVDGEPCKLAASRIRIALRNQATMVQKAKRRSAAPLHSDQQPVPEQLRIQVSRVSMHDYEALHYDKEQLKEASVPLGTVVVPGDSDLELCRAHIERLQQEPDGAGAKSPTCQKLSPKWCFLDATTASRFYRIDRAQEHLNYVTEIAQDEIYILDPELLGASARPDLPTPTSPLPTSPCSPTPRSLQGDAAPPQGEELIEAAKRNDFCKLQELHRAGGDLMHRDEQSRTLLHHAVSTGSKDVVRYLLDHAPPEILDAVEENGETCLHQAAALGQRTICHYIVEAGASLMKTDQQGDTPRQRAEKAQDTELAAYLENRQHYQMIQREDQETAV

| Structure (SMILES) | IC50 (human recombinant DGK ξ) | EC50 (Jurkat E6.1 cells) | Antitumor effect (MC38 cells; 5 mg/kg) | Antitumor effect (B16-F1 cells; 1.5 mg/kg, 2/day, 10 days, 5 × 10^5 cells inoculated) | Antitumor effect (B16-F1 cells; 0.3 mg/kg, 1/day, 10 days, 1 × 10^5 cells inoculated) | Antitumor effect (B16-F1 cells; 0.03 mg/kg, 1/day, 10 days, 1 × 10^5 cells inoculated) | Antitumor effect (B16-F1 cells; 0.5 mg/kg, 2/day, 10 days, 5 × 10^5 cells inoculated) | Antitumor effect (B16-F1 cells; [1]) | Antitumor effect (MC38 cells; 4.7 mg/kg) |
| --- | --- | --- | --- | --- | --- | --- | --- | --- | --- |
| NC[C@@H]1CCCN(c2c(NC(=O)c3csc(-c4ccnnc4)n3)ccc(Oc3ccccc3F)c2C(F)(F)F)C1 [Example 33] | 0.005 µM | 0.009 µM | 36% Inhibition |  |  |  |  |  |  |
| NC[C@H]1CCCN1c1c(NC(=O)c2csc(-c3ccnnc3)n2)ccc(Oc2ccccc2)c1C(F)(F)F [Example 34] | 0.012 µM | 0.03 µM | 55% Inhibition | 48% Inhibition |  |  |  |  |  |
| N[C@@H]1CCN2CCN(c3c(NC(=O)c4csc(-c5ccnnc5)n4)ccc(Oc4ccccc4)c3C(F)(F)F)C[C@@H]12 [Example 78, N-{2-[(8R,8aS)-8-aminohexahydropyrrolo[1,2-a]pyrazine-2(1H)-yl]-4-phenoxy-3-(trifluoromethyl)phenyl}-2-(pyridazin-4-yl)-1,3-thiazole-4-carboxamide] | 0.005 µM | 0.027 µM |  |  | 30% Inhibition |  |  |  |  |
| CN(C)[C@@H]1CCN2CCN(c3c(NC(=O)c4csc(-c5ccnnc5)n4)ccc(Oc4ccccc4)c3C(F)(F)F)C[C@@H]12 [Example 80] | 0.0007 µM | 0.005 µM |  |  |  | 30% Inhibition |  |  |  |
| NC[C@@H]1CCCN(c2c(NC(=O)c3csc(-c4ccnnc4)n3)ccc(Oc3ccccc3)c2C(F)(F)F)C1 [Example 9, N-{2-[(3S)-3-(aminomethyl)piperidin-1-yl]-4-phenoxy-3-(trifluoromethyl)phenyl}-2-(pyridazin-4-yl)-1,3-thiazole-4-carboxamide] | 0.008 µM | 0.018 µM | 64% Inhibition |  |  |  | 36% Inhibition |  |  |
| NC[C@@H]1CCCN(c2c(NC(=O)c3csc(-c4ccnnc4)n3)ccc(Oc3cccc(F)c3)c2C(F)(F)F)C1 [Example 11] | 0.019 µM | 0.032 µM | 63% Inhibition |  |  |  |  |  |  |
| COCCN1CCC2(CC1)CN(c1c(NC(=O)c3csc(-c4ccnnc4)n3)ccc(Oc3ccccc3)c1C(F)(F)F)CCO2 [Example 59, N-{2-[9-(2-methoxyethyl)-1-oxa-4,9-diazaspiro[5.5]undecan-4-yl]-4-phenoxy-3-(trifluoromethyl)phenyl}-2-(pyridazin-4-yl)-1,3-thiazole-4-carboxamide dihydrochloride] | 0.002 µM | 0.036 µM |  |  |  |  |  | 46% Inhibition |  |
| CNC[C@@H]1CCCN(c2c(NC(=O)c3csc(-c4ccnnc4)n3)ccc(Oc3ccccc3F)c2C(F)(F)F)C1.Cl [Example 10] | 0.008 µM | 0.173 µM |  |  |  |  |  | 42% Inhibition | 60% Inhibition |
